Assay results from patent US20230348459A1, “PYRROLIDINE COMPOUND AND USE THEREOF” (SIMCERE PHARMACEUTICAL CO., LTD., priority 2020, published 2023).

Legend:
[1] = biological target: CYP2D6 (Homo sapiens (Human), UniProt P10635); test: Inhibition of CYP2D6 enzymatic activity in human liver microsomes; type: in vitro ADME; conditions: substrate dextromethorphan
Protocol: The inhibition of CYP2C9 and CYP2D6 enzymatic activities by the compounds of the present invention was determined by the following test method.
• 1. Human liver microsomes (Corning 452117) • 2. NADPH (Solarbio 705Y021) • 3. Positive substrates diclofenac (Sigma SLBV3438), dextromethorphan (TRC 3-EDO-175-1) and midazolam (Cerilliant FE01161704) • 4. Positive inhibitors sulfaphenazole (D. Ehrenstorfer GmbH 109012), quinidine (TCI WEODL-RE) and ketoconazole (Sigma 100M1091V) • 5. AB Sciex Triple Quad 5500 liquid chromatography-mass spectrometry
1. Preparation of 100 mM phosphate buffered saline (PBS): 7.098 g of Na2HPO4 was weighed, 500 mL of pure water was added and subjected to ultrasonic dissolution to obtain solution A. 3.400 g of KH2PO4 was weighed, 250 mL of pure water was added and subjected to ultrasonic dissolution to obtain solution B. Solution A was placed on a stirrer and solution B was slowly added until pH reaches 7.4 to prepare 100 mM PBS buffer.
2. Preparation of 10 mM NADPH solution with 100 mM PBS buffer. 10 mM stock solution of compounds of the invention was diluted with DMSO to obtain a 200× concentration of compound working solution (6000, 2000, 600, 200, 60, 20, 0 µM). The stock solution of positive inhibitors was diluted with DMSO to obtain a 200× concentration of positive inhibitor working solution (sulfaphenazole, 1000, 300, 100, 30, 10, 3, 0 µM; quinidine/ketoconazole, 100, 30, 10, 3, 1, 0.3, 0 µM). A 200 × concentration of substrate working solution (120 µM of diclofenac, 400 µM of dextromethorphan, and 200 µM of midazolam) was prepared in water, acetonitrile, or acetonitrile/methanol.
3. 2 µl of 20 mg/ml liver microsome solution, 1 µl of substrate working solution, 1 µl of compound working solution and 176 µl of PBS buffer were taken, mixed uniformly, and pre-incubated in a 37° C. water bath for 15 minutes. […]
The IC50 values of the compounds of the present invention against CYP2C9 and CYP2D6 were calculated by Excel XLfit 5.3.1.3.

[2] = Plasma protein binding rate, equilibrium dialysis, human plasma; type: in vitro ADME; conditions: pH 7.4, 6 hours dialysis
Protocol: The protein binding rate of the compounds of the present invention in the plasma of five species (human, monkey, dog, rat and mouse) was determined by the following test method.
• 1. Human plasma (BioIVT), beagle dog plasma (BioIVT), SD rat plasma (BioIVT), CD-1 mouse plasma (BioIVT); • 2. 96-well equilibrium dialysis plate (HTDialysis LLC, Gales Ferry, CT, HTD96B), equilibrium dialysis membrane (MWCO 12-14 K, #1101); • 3. Positive control compound warfarin; • 4. ABI QTrap 5500 liquid chromatography-mass spectrometry.
1. Preparation of a buffer with a concentration of 100 mM sodium phosphate and 150 mM NaCl: an alkaline solution with a concentration of 14.2 g/L Na2HPO4 and 8.77 g/L NaCl was prepared with ultrapure water, and an acidic solution with a concentration of 12.0 g/L NaH2PO4 and 8.77 g/L NaCl was prepared with ultrapure water. The alkaline solution was titrated with the acidic solution to pH 7.4 to prepare a buffer with a concentration of 100 mM sodium phosphate and 150 mM NaCl.
2. Preparation of dialysis membrane: the dialysis membrane was soaked in ultrapure water for 60 minutes to separate the membrane into two pieces, then soaked in 20% ethanol for 20 minutes, and finally soaked in the buffer used for dialysis for 20 minutes.
3. Preparation of plasma: the frozen plasma was quickly thawed at room temperature, then the plasma was centrifuged at 3,220 g at 4° C. for 10 min to remove clots, and the supernatant was collected into a new centrifuge tube. The pH of the plasma was measured and recorded, and the plasma with pH of 7-8 was used.
3. Preparation of compound-containing plasma samples: 10 mM stock solution of compounds of the present invention or positive control compounds were diluted with DMSO to obtain 200 µM working solution. […]
The peak areas of the compounds on the buffer side and the plasma side were determined. […]
All the data was calculated by the Microsoft Excel software. The plasma protein binding rate values of the compounds of the present invention were calculated.

CYP2D6, sequence (P10635 whole entry): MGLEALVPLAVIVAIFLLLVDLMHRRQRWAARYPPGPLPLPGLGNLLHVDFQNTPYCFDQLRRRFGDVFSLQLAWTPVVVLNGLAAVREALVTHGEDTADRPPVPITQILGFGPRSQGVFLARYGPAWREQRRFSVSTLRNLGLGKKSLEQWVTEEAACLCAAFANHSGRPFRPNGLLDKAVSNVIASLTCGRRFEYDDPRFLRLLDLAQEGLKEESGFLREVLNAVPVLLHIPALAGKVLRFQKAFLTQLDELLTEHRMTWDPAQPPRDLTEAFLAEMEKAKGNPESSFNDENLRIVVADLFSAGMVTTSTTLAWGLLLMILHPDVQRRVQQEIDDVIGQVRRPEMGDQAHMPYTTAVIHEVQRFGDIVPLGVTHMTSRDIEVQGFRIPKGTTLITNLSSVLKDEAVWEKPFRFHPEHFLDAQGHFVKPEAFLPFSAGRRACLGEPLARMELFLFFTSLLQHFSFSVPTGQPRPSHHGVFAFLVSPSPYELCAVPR

SMILES | IC50 [1] [µM] | fraction unbound at 6 h, 1 µM [2]
C[C@@H]1Cc2c([nH]c3ccccc23)C(c2c(F)cc(N[C@H]3CCN(CCCF)C3)cc2F)N1CC(F)(F)F (stereo in doubt) [Example 4, (S)-N-(3,5-difluoro-4-((1S,3R)-3-methyl-2-(2,2,2-trifluoroethyl)-2,3,4,9-tetrahydro-1H-pyridino[3,4-b]indol-1-yl)phenyl)-1-(3-fluoropropyl)pyrrolidin-3-amine] | 27 | 0.002
C[C@@H]1Cc2c([nH]c3ccccc23)C(c2c(F)cc(N[C@H]3CCN(CCCF)C3)cc2F)N1CC(F)(F)CO (stereo in doubt) [Example 7, 3-((1S,3R)-1-(2,6-difluoro-4-(((S)-1-(3-fluoropropyl)pyrrolidin-3-yl)amino)phenyl)-3-methyl-3,4-dihydro-1H-pyridino [3,4-b]indole-2(9H)-yl)-2,2-difluoropropane-1-ol] | 23 | 0.005
C[C@@H]1Cc2c([nH]c3ccccc23)[C@@H](c2ccc(N[C@H]3CCN(CCCF)C3)cn2)N1CC(F)(F)F [Example 3, N-((S)-1-(3-fluoropropyl)pyrrolidin-3-yl)-6-((1S,3R)-3-methyl-2-(2,2,2-trifluoroethyl)-2,3,4,9-tetrahydro-1H-pyridino[3,4-b]indol-1-yl)pyridine-3-amine] | > 30 | 0.012
